In ChEMBL document CHEMBL2057100, “The optimization of pyridazinone series of glucan synthase inhibitors” (Bioorg Med Chem Lett, 2012):
In brackets after ≈: the same amount, converted by molar mass.

Experiments:
[1] = tested on: Nakaseomyces glabratus; assay: Antifungal activity against Candida glabrata C624 by broth dilution method; format: functional; conditions: read-out: MIC100
[2] = biological target: T1, Beta-1,3-glucan synthase (Candida albicans, UniProt O13383); assay: Inhibition of 1,3-beta-D-glucan synthase in Candida albicans BWP17 membranes; format: cell membranes
T1 sequence (O13383 whole entry): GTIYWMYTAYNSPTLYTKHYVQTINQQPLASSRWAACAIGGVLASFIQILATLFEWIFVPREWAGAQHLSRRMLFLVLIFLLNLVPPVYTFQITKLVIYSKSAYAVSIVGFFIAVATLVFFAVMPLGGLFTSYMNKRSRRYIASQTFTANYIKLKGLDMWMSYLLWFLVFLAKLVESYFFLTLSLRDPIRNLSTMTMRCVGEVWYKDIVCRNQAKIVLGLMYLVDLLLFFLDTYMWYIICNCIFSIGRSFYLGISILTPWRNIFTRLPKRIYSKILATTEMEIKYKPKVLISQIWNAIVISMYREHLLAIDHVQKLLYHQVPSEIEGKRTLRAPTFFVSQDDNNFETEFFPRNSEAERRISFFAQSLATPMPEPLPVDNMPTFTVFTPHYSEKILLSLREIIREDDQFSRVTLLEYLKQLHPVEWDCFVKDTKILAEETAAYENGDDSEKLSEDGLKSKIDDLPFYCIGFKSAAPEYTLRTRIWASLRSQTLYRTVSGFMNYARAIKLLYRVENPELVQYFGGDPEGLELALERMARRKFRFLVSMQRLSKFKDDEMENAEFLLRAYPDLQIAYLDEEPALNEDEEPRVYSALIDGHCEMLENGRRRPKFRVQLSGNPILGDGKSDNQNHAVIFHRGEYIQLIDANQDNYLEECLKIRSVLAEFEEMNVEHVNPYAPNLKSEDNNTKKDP

[3] = tested on: Candida albicans; assay: Antifungal activity against Candida albicans C693 by broth dilution method; format: functional; conditions: read-out: MIC100
[4] = AUC (0 to 6 hrs) in rat at 10 mg/kg, po; format: ADME, organism-based, Plasma; design: time < 6 hr, dose 10 mg/kg, route oral; conditions: plasma
[5] = tested on: Aspergillus fumigatus; assay: Antifungal activity against Aspergillus fumigatus ND158 by broth dilution method; format: functional; conditions: read-out: MEC
[6] = Cmax in rat at 10 mg/kg, po; format: ADME, organism-based; design: dose 10 mg/kg, route oral; conditions: in vivo

Compound	MIC [1] [µg/mL]	IC50 [2] [nM]	MIC [3] [µg/mL]	AUC(0-t) at 6 h [4] [ng·h/mL]	minimal effective concentration [5] [µg/mL]	Cmax [6] [ng/mL]
O=c1c(OC2CCCc3ncccc32)c(N2CCN(S(=O)(=O)Cc3ccccc3)CC2)cnn1-c1cccc(Cl)c1 (stereo not drawn)	1.6 (≈ 2.7 µM)	6760	> 50			
Cc1cc(CS(=O)(=O)N2CCN(c3cnn(-c4cccc(Cl)c4)c(=O)c3OCC3(C)CC3)CC2)ccc1N	0.13 (≈ 0.233 µM)	143	1.04 (≈ 1.86 µM)	15000	2.08	3000
O=c1c(OC2CCCC2)c(N2CCN(S(=O)(=O)Cc3ccccc3)CC2)cnn1-c1cccc(Cl)c1	< 0.02	378	0.39 (≈ 0.737 µM)			
CC1(COc2c(N3CCN(S(=O)(=O)Cc4ccccc4)CC3)cnn(-c3cccc(Cl)c3)c2=O)CC1	< 0.02	56.7	0.1 (≈ 0.189 µM)			
CCc1cc(CS(=O)(=O)N2CCN(c3cnn(-c4cccc(Cl)c4)c(=O)c3OCC3(C)CC3)CC2)ccc1N	0.13 (≈ 0.227 µM)	315	4.2 (≈ 7.34 µM)	9400	4.2	2300
O=c1c(OC2CCCCC2)c(N2CCN(S(=O)(=O)Cc3ccccc3)CC2)cnn1-c1cccc(Cl)c1	< 0.02	1470	0.78 (≈ 1.44 µM)			
CC1(COc2c(N3CCN(S(=O)(=O)Cc4ccc(N)c(C(F)(F)F)c4)CC3)cnn(-c3cccc(Cl)c3)c2=O)CC1	0.52 (≈ 0.85 µM)	637	> 33	640	> 33	440
O=c1c(OC2CCCC2)c(N2CCN(S(=O)(=O)Cc3ccc(F)cc3)CC2)cnn1-c1cccc(Cl)c1	0.05 (≈ 0.0914 µM)	110	1.56 (≈ 2.85 µM)			
O=c1c(OCC2(CF)CC2)c(N2CCN(S(=O)(=O)Cc3ccccc3)CC2)cnn1-c1cccc(Cl)c1	< 0.02	54.8	0.2 (≈ 0.366 µM)			
O=c1c(OC2CCCC2)c(N2CCN(S(=O)(=O)Cc3cccc(Cl)c3)CC2)cnn1-c1cccc(Cl)c1	0.05 (≈ 0.0887 µM)	160	1.56 (≈ 2.77 µM)			
Nc1cccc(CS(=O)(=O)N2CCN(c3cnn(-c4cc(F)cc(F)c4)c(=O)c3OC3CCCC3)CC2)c1	0.13 (≈ 0.238 µM)	128	0.52 (≈ 0.953 µM)	5700		
O=C(O)c1ccc(CS(=O)(=O)N2CCN(c3cnn(-c4cccc(Cl)c4)c(=O)c3OC3CCCC3)CC2)cc1	25 (≈ 43.6 µM)	4190	> 50			
CC(C)(O)CCOc1c(N2CCN(S(=O)(=O)Cc3ccccc3)CC2)cnn(-c2cc(F)cc(F)c2)c1=O	0.78 (≈ 1.42 µM)	565	25 (≈ 45.6 µM)			
O=c1c(OC2CCOCC2)c(N2CCN(S(=O)(=O)Cc3ccccc3)CC2)cnn1-c1cccc(Cl)c1	0.02 (≈ 0.0367 µM)	917	3.13 (≈ 5.74 µM)			
CC1(COc2c(N3CCN(S(=O)(=O)Cc4ccc(N)c(F)c4)CC3)cnn(-c3cc(F)cc(F)c3)c2=O)CC1	0.06 (≈ 0.106 µM)	53.2	0.26 (≈ 0.461 µM)	890	2.08	310
O=c1c(OC2CCCC2)c(N2CCN(S(=O)(=O)Cc3cc(Cl)cc(Cl)c3)CC2)cnn1-c1cccc(Cl)c1	0.39 (≈ 0.652 µM)	351	> 50			
CC1(COc2c(N3CCN(S(=O)(=O)Cc4cccnc4N)CC3)cnn(-c3cccc(Cl)c3)c2=O)CC1	0.06 (≈ 0.11 µM)	239	2.08 (≈ 3.82 µM)	5200	8.4	1700
O=c1c(OC2CCc3cccnc32)c(N2CCN(S(=O)(=O)Cc3ccccc3)CC2)cnn1-c1cccc(Cl)c1 (stereo not drawn)	0.78 (≈ 1.35 µM)	1380	12.5 (≈ 21.6 µM)			
CC1(COc2c(N3CCN(S(=O)(=O)Cc4ccnc(N)c4)CC3)cnn(-c3cccc(Cl)c3)c2=O)CC1	1.04 (≈ 1.91 µM)	275	16.7 (≈ 30.6 µM)		8.4	
CNc1ccc(CS(=O)(=O)N2CCN(c3cnn(-c4cccc(Cl)c4)c(=O)c3OCC3(C)CC3)CC2)cc1	0.78 (≈ 1.4 µM)	17.9	0.2 (≈ 0.358 µM)		> 50	
